Measured values reported in patent US9999619B2, “Piperidin-4-yl azetidine derivatives as JAK1 inhibitors” (Incyte Corporation, priority 2010, dated 2018).

Assays:
Format in all cases: biochemical
[1] = molecular target: human JAK1 (a.a. 837-1142) (Homo sapiens, UniProt P23458); experiment: In vitro JAK kinase assay (HTRF, phosphorylation of a biotinylated peptide), JAK1; conditions: measured at 1 mM ATP
Method in brief: (§1)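 N-terminally His-tagged catalytic domains, baculovirus-expressed in insect cells and purified, were used as enzyme. Reactions ran 1 hr at room temperature and were stopped with a mix of 45 mM EDTA, 300 nM SA-APC and 6 nM Eu-Py20. The HTRF signal was read after 40 min of antibody binding.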

[2] = molecular target: human JAK1 (a.a. 837-1142); experiment: as above; conditions: ratio of JAK2 IC50 to JAK1 IC50, measured at 1 mM ATP
Method in brief: as §1

Jak2 (a.a. 828-1132) = Jak2 (a.a. 828-1132) (Homo sapiens (Human), UniProt O60674); experiment: In vitro JAK kinase assay (HTRF, phosphorylation of a biotinylated peptide), JAK2; conditions: measured at 1 mM ATP
Chain of Jak2 (a.a. 828-1132) (O60674 828-1132): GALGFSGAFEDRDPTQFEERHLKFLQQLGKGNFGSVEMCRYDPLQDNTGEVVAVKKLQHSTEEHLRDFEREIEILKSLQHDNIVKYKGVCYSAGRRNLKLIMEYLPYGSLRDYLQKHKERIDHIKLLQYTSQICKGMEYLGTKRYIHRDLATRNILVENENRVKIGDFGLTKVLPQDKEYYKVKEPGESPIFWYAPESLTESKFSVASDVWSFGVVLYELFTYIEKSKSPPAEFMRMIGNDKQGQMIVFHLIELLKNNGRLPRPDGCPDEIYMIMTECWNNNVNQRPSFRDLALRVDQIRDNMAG
Method in brief: as §1

Compound	IC50 [1] [nM]	IC50 Ratio JAK2/JAK1 [2]	IC50 (Jak2 (a.a. 828-1132)) [nM]
N#CCC1(n2ccc(-c3ncnc4[nH]ccc34)c2)CN(C2CCN(C(=O)c3cc(F)ccc3F)CC2)C1 [Example 278, {1-[1-(2,5-difluorobenzoyl)piperidin-4-yl]-3-[3-(7H-pyrrolo[2,3-d]pyrimidin-4-yl)-1H-pyrrol-1-yl]azetidin-3-yl}acetonitrile]	≤ 5	5.6	≤ 10
N#CCC1(n2cc(-c3ncnc4[nH]ccc34)cn2)CN(C2CCN(C(=O)c3cccc4ccccc34)CC2)C1 [Example 87, {1-[1-(1-naphthoyl)piperidin-4-yl]-3-[4-(7H-pyrrolo[2,3-d]pyrimidin-4-yl)-1H-pyrazol-1-yl]azetidin-3-yl}acetonitrile]	≤ 5	0.3	≤ 10
COc1cc(F)cc(C(=O)N2CCC(N3CC(CC#N)(n4cc(-c5ncnc6[nH]ccc56)cn4)C3)CC2)c1 [Example 36, {1-[1-(3-fluoro-5-methoxybenzoyl)piperidin-4-yl]-3-[4-(7H-pyrrolo[2,3-d]pyrimidin-4-yl)-1H-pyrazol-1-yl]azetidin-3-yl}acetonitrile]	≤ 5	2.3	≤ 10
N#CCC1(n2cc(-c3ncnc4[nH]ccc34)cn2)CN(C2CCN(C(=O)c3cc(F)c(F)cc3F)CC2)C1 [Example 48, {3-[4-(7H-pyrrolo[2,3-d]pyrimidin-4-yl)-1H-pyrazol-1-yl]-1-[1-(2,4,5-trifluorobenzoyl)piperidin-4-yl]azetidin-3-yl}acetonitrile]	≤ 5	6.5	10 to 50
N#CCC1(n2ccc(-c3ncnc4[nH]ccc34)c2)CN(C2CCN(C(=O)c3ccc(C(F)(F)F)c(F)c3)CC2)C1 [Example 267, {1-{1-[3-fluoro-4-(trifluoromethyl)benzoyl]piperidin-4-yl}-3-[3-(7H-pyrrolo[2,3-d]pyrimidin-4-yl)-1H-pyrrol-1-yl]azetidin-3-yl}acetonitrile]	5 to 20	6.6	50 to 100
N#CCC1(n2cc(-c3ncnc4[nH]ccc34)cn2)CN(C2CCN(Cc3c(Cl)cncc3Cl)CC2)C1 [Example 237, {1-{1-[(3,5-dichloropyridin-4-yl)methyl]piperidin-4-yl}-3-[4-(7H-pyrrolo[2,3-d]pyrimidin-4-yl)-1H-pyrazol-1-yl]azetidin-3-yl}acetonitrile]	5 to 20	2.3	10 to 50

The remaining lines, values ahead:

IC50 [1] [nM]	IC50 Ratio JAK2/JAK1 [2]	IC50 (Jak2 (a.a. 828-1132)) [nM]	Compound
5 to 20	4.4	10 to 50	Cc1nc(C(F)(F)F)ccc1NC(=O)N1CCC(N2CC(CC#N)(n3cc(-c4ncnc5[nH]ccc45)cn3)C2)CC1 [Example 205, 4-{3-(cyanomethyl)-3-[4-(7H-pyrrolo[2,3-d]pyrimidin-4-yl)-1H-pyrazol-1-yl]azetidin-1-yl}-N-[2-methyl-6-(trifluoromethyl)pyridin-3-yl]piperidine-1-carboxamide]
≤ 5	19.3	50 to 100	N#CCC1(n2cc(-c3c(C#N)cnc4[nH]ccc34)cn2)CN(C2CCN(C(=O)c3ccnc(C(F)(F)F)c3F)CC2)C1 [Example 332, 4-[1-(3-(Cyanomethyl)-1-{1-[3-fluoro-2-(trifluoromethyl)isonicotinoyl]piperidin-4-yl}azetidin-3-yl)-1H-pyrazol-4-yl]-1H-pyrrolo[2,3-b]pyridine-5-carbonitrile]
5 to 20	2.1	10 to 50	N#CCC1(n2cc(-c3c(F)cnc4[nH]ccc34)cn2)CN(C2CCN(C(=O)c3cnc(C(F)(F)F)cn3)CC2)C1 [Example 354, [3-[4-(5-Fluoro-1H-pyrrolo[2,3-b]pyridin-4-yl)-1H-pyrazol-1-yl]-1-(1-{[5-(trifluoromethyl)pyrazin-2-yl]carbonyl}piperidin-4-yl)azetidin-3-yl]acetonitrile]
